In publication PMC9606955, “In Vitro Activity of Essential Oils Distilled from Colombian Plants against Candida auris and Other Candida Species with Different Antifungal Susceptibility Profiles” (Molecules, 2022):
In brackets after ≈: the same amount, converted by molar mass. One block for each compound: values may come before it.

What was measured:
C. auris = assay: Screening of antifungal activity at 256 µg/mL against C. auris; format: cell-based, Candida auris; conditions: screening at 256 µg/mL, clinical isolates of C. auris
Excerpt: (§1) The fungal strains used in this study were C. albicans ATCC 10231, C. albicans ATCC 64550, C. parapsilosis ATCC 22019, C. tropicalis ATCC 750, C. tropicalis ATCC 200956 (resistant to azoles and AMB), C. glabrata LMDM 34 (resistant to echinocandins), C. metapsilosis MUM 15.12, C. orthopsilosis MUM 17.13, C. lusitaniae MUM 17.08, C. krusei ATCC 6258 (Issatchenkia orientalis ATCC 6258), and C. auris CDC B11903. Additionally, nine clinical isolates were included: C. parapsilosis Synlab 406 (FLC-resistant) and eight C. auris isolates identified by MALDI-TOF MS (Bruker Daltonics, Bremen, Germany) according to Zhao et al.. These yeasts were cultured on Sabouraud Dextrose Agar (SDA; Sigma-Aldrich, St. Louis, MO, USA) for 24 h at 35 °C.
Antifungal susceptibility testing was performed according to Clinical and Laboratory Standards Institute M27, 4th Edition (CLSI standard M27, 4th Edition). Some modifications were applied for evaluation of the antifungal activity of EOs and terpenes. Initially, a screening was carried out to determine the antifungal activity of the EOs and of commercial terpenes. Stock concentrations of EOs and terpenes were prepared at 512 µg/mL and an inoculum of 2.5 × 10^3 CFU/mL of each yeast was prepared in RPMI 1640-MOPS (Sigma- Aldrich St. Louis, MO, USA). Thereafter, 100 µL of each stock solution of EOs or terpenes was dispensed in 96-well microdilution plates (Corning®, Costar®, NY, USA) and 100 µL of each yeast inoculum was added. […] MICs were visually determined at the lowest concentration that produced visual inhibition compared to the growth control. […] The results were expressed as geometric means (GM) and ranges. As an antifungal susceptibility testing control, the activity of ITC and AMB against the reference strains C. krusei ATCC 6258 and C. parapsilosis ATCC 22019 was evaluated in all experiments following the CLSI standard M27, 4th Edition. […]

[1] = tested on: C. orthopsilosis MUM 17.13; assay: MIC, CLSI M27 broth microdilution; format: cell-based, Candida orthopsilosis; conditions: C. orthopsilosis MUM 17.13, antifungal drugs
Excerpt: as §1
(§2) Antifungal susceptibility testing was performed according to Clinical and Laboratory Standards Institute M27, 4th Edition (CLSI standard M27, 4th Edition). Some modifications were applied for evaluation of the antifungal activity of EOs and terpenes. Initially, a screening was carried out to determine the antifungal activity of the EOs and of commercial terpenes. Stock concentrations of EOs and terpenes were prepared at 512 µg/mL and an inoculum of 2.5 × 10^3 CFU/mL of each yeast was prepared in RPMI 1640-MOPS (Sigma- Aldrich St. Louis, MO, USA). Thereafter, 100 µL of each stock solution of EOs or terpenes was dispensed in 96-well microdilution plates (Corning®, Costar®, NY, USA) and 100 µL of each yeast inoculum was added. […] Microdilution plates were incubated at 35 °C and, after 24 h, the presence or absence of growth was visually checked using a manual mirror viewer and then compared with the amount of growth in the control (no EO or terpene). Compounds able to inhibit yeast growth were tested to determine the minimal inhibitory concentration (MIC) as follows: 100 µL of 10 two-fold dilutions of the EOs or commercial terpenes was dispensed in 96-well microplates and the yeast inoculum was added. Final concentrations of the EOs or terpenes ranged from 0.5 µg/mL to 256 µg/mL. Microdilution plates were incubated at 35 °C for 24 h. MICs were visually determined at the lowest concentration that produced visual inhibition compared to the growth control. The assays were performed at least three times in duplicate on different days. The results were expressed as geometric means (GM) and ranges. As an antifungal susceptibility testing control, the activity of ITC and AMB against the reference strains C. krusei ATCC 6258 and C. parapsilosis ATCC 22019 was evaluated in all experiments following the CLSI standard M27, 4th Edition. It was mandatory that the MIC values remained in the accepted range.

[2] = tested on: C. metapsilosis MUM 15.12; assay: MIC, CLSI M27 broth microdilution; format: cell-based, Candida metapsilosis; conditions: C. metapsilosis MUM 15.12, antifungal drugs
Excerpt: as §1, §2

[3] = tested on: C. parapsilosis ATCC 22019; assay: MIC, CLSI M27 broth microdilution; format: cell-based, Candida parapsilosis; conditions: antifungal drugs
Excerpt: as §1, §2

[4] = tested on: C. parapsilosis Synlab 406; assay: MIC, CLSI M27 broth microdilution; format: cell-based, Candida parapsilosis; conditions: C. parapsilosis Synlab 406, antifungal drugs
Excerpt: as §1, §2

C. glabrata LMDM 34 = assay: MIC, CLSI M27 broth microdilution; format: cell-based, Candida glabrata; conditions: antifungal drugs
Excerpt: as §1, §2

C. albicans ATCC 64550 = assay: MIC, CLSI M27 broth microdilution; format: cell-based, Candida albicans; conditions: antifungal drugs
Excerpt: as §1, §2

C. albicans ATCC 10231 = assay: MIC, CLSI M27 broth microdilution; format: cell-based, Candida albicans; conditions: antifungal drugs
Excerpt: as §1, §2

C. auris Ca 32 = assay: MIC, CLSI M27 broth microdilution; format: cell-based, Candida auris; conditions: C. auris Ca 32, antifungal drugs
Excerpt: as §1, §2

C. auris Ca 46 = assay: MIC, CLSI M27 broth microdilution; format: cell-based, Candida auris; conditions: C. auris Ca 46, antifungal drugs
Excerpt: as §1, §2

C. auris Ca 10 = assay: MIC, CLSI M27 broth microdilution; format: cell-based, Candida auris; conditions: antifungal drugs
Excerpt: as §1, §2

C. auris Ca 17 = assay: MIC, CLSI M27 broth microdilution; format: cell-based, Candida auris; conditions: C. auris Ca 17, antifungal drugs
Excerpt: as §1, §2

C. auris Ca 9 = assay: MIC, CLSI M27 broth microdilution; format: cell-based, Candida auris; conditions: C. auris Ca 9, antifungal drugs
Excerpt: as §1, §2

C. auris Ca 45 = assay: MIC, CLSI M27 broth microdilution; format: cell-based, Candida auris; conditions: C. auris Ca 45, antifungal drugs
Excerpt: as §1, §2

C. auris Ca 1 = assay: MIC, CLSI M27 broth microdilution; format: cell-based, Candida auris; conditions: C. auris Ca 1, antifungal drugs
Excerpt: as §1, §2

C. auris CDC B11903 = assay: MIC, CLSI M27 broth microdilution; format: cell-based, Candida auris; conditions: C. auris CDCB11903, antifungal drugs
Excerpt: as §1, §2

C. auris Ca 41 = assay: MIC, CLSI M27 broth microdilution; format: cell-based, Candida auris; conditions: C. auris Ca 41, antifungal drugs
Excerpt: as §1, §2

C. lusitaniae MUM 17.08 = assay: MIC, CLSI M27 broth microdilution; format: cell-based, Candida lusitaniae; conditions: C. lusitaniae MUM 17.08, antifungal drugs
Excerpt: as §1, §2

C. krusei ATCC 6258 = assay: MIC, CLSI M27 broth microdilution; format: cell-based, Candida krusei; conditions: C. krusei ATCC 6258, antifungal drugs
Excerpt: as §1, §2

[5] = tested on: C. tropicalis ATCC 200956; assay: MIC, CLSI M27 broth microdilution; format: cell-based, Candida tropicalis; conditions: C. tropicalis ATCC 200956, antifungal drugs
Excerpt: as §1, §2

C. tropicalis ATCC 750 = assay: MIC, CLSI M27 broth microdilution; format: cell-based, Candida tropicalis; conditions: antifungal drugs
Excerpt: as §1, §2

SMILES: C=C1CC/C=C(\C)CC[C@@H]2[C@@H]1CC2(C)C (relative stereo) [trans-β-caryophyllene]
- antifungal activity in screening against C. auris (C. auris): active against only some of the clinical isolates of C. auris

- MIC Range [1]: 0.12 µg/mL (≈ 0.17 µM)
- MIC ([1]; Lodderomyces orthopsilosis, MUM17.13, geometric mean, read-out: MIC GM): 0.12 µg/mL (≈ 0.17 µM)
- MIC Range [2]: 0.06 to 0.12 µg/mL
- MIC ([2]; Lodderomyces metapsilosis, MUM15.12, geometric mean, read-out: MIC GM): 0.09 µg/mL (≈ 0.128 µM)
- MIC ([3]; Lodderomyces parapsilosis, ATCC22019, geometric mean): 0.35 µg/mL (≈ 0.496 µM)
- MIC Range [3]: 0.25 to 0.50 µg/mL
- MIC Range [4]: 0.5 to 1 µg/mL
- MIC ([4]; Lodderomyces parapsilosis, SYNLAB406, geometric mean, read-out: MIC GM): 0.7 µg/mL (≈ 0.992 µM)
- MIC (C. glabrata LMDM 34; Nakaseomyces glabratus, LMDM34, geometric mean): 1 µg/mL (≈ 1.42 µM)
- MIC Range (C. glabrata LMDM 34): 1 µg/mL (≈ 1.42 µM)
- MIC (C. albicans ATCC 64550; Candida albicans, ATCC64550, geometric mean): 0.7 µg/mL (≈ 0.992 µM)
- MIC Range (C. albicans ATCC 64550): 0.5 to 1 µg/mL
- MIC (C. albicans ATCC 10231; Candida albicans, ATCC10231, geometric mean): 0.06 µg/mL (≈ 0.085 µM)
- MIC Range (C. albicans ATCC 10231): 0.03 to 0.125 µg/mL
- MIC Range (C. auris Ca 32): 0.25 to 0.50 µg/mL
- MIC (C. auris Ca 32; Candidozyma auris, CA32, geometric mean, read-out: MIC GM): 0.35 µg/mL (≈ 0.496 µM)
- MIC Range (C. auris Ca 46): 0.06 to 0.12 µg/mL
- MIC (C. auris Ca 46; Candidozyma auris, CA46, geometric mean, read-out: MIC GM): 0.04 µg/mL (≈ 0.0567 µM)
- MIC (C. auris Ca 10; Candidozyma auris, CA10, geometric mean): 0.09 µg/mL (≈ 0.128 µM)
- MIC Range (C. auris Ca 10): 0.06 to 0.12 µg/mL
- MIC Range (C. auris Ca 17): 0.12 to 0.5 µg/mL
- MIC (C. auris Ca 17; Candidozyma auris, CA17, geometric mean, read-out: MIC GM): 0.25 µg/mL (≈ 0.354 µM)
- MIC Range (C. auris Ca 9): 0.03 to 0.12 µg/mL
- MIC (C. auris Ca 9; Candidozyma auris, CA9, geometric mean, read-out: MIC GM): 0.06 µg/mL (≈ 0.085 µM)
- MIC Range (C. auris Ca 45): 0.06 to 0.12 µg/mL
- MIC (C. auris Ca 45; Candidozyma auris, CA45, geometric mean, read-out: MIC GM): 0.04 µg/mL (≈ 0.0567 µM)
- MIC Range (C. auris Ca 1): 0.03 to 0.12 µg/mL
- MIC (C. auris Ca 1; Candidozyma auris, CA1, geometric mean, read-out: MIC GM): 0.06 µg/mL (≈ 0.085 µM)
- MIC Range (C. auris CDC B11903): 0.06 to 0.12 µg/mL
- MIC (C. auris CDC B11903; Candidozyma auris, geometric mean, read-out: MIC GM): 0.04 µg/mL (≈ 0.0567 µM)
- MIC Range (C. auris Ca 41): 0.03 to 0.12 µg/mL
- MIC (C. auris Ca 41; Candidozyma auris, CA41, geometric mean, read-out: MIC GM): 0.06 µg/mL (≈ 0.085 µM)
- MIC Range (C. lusitaniae MUM 17.08): 0.03 to 0.06 µg/mL
- MIC (C. lusitaniae MUM 17.08; Clavispora lusitaniae, MUM17.08, geometric mean, read-out: MIC GM): 0.04 µg/mL (≈ 0.0567 µM)
- MIC Range (C. krusei ATCC 6258): 0.12 to 0.50 µg/mL
- MIC (C. krusei ATCC 6258; Pichia kudriavzevii, ATCC6258, geometric mean, read-out: MIC GM): 0.28 µg/mL (≈ 0.397 µM)
- MIC Range [5]: >16 µg/mL
- MIC ([5]; Candida tropicalis, ATCC200956, geometric mean, read-out: MIC GM): > 16 µg/mL
- MIC (C. tropicalis ATCC 750; Candida tropicalis, ATCC750, geometric mean): 0.12 µg/mL (≈ 0.17 µM)
- MIC Range (C. tropicalis ATCC 750): 0.06 to 0.25 µg/mL
SMILES: CCC(C)n1ncn(-c2ccc(N3CCN(c4ccc(OCC5COC(Cn6cncn6)(c6ccc(Cl)cc6Cl)O5)cc4)CC3)cc2)c1=O (centres unmarked) [ITC, itraconazole]
